Reference: patent US9242981B2, “Fused pyrazole derivatives as novel ERK inhibitors” (Merck Sharp & Dohme Corp., priority 2010, dated 2016)

molecular target: Mouse ERK2 protein (Mus musculus (Mouse), UniProt P63085); assay: Coupled MEK1/ERK2 IMAP assay or Active ERK2 IMAP assay; format: biochemical; conditions: Table 1, class symbols, 30 μM ATP
Procedure: 14 μl of kinase buffer (10 mM Tris.HCl pH 7.2, 10 mM MgCl2, 0.01% Tween-20, 1 mM DTT) containing 0.4 ng unphosphorylated Mouse ERK2 protein is added to each well of a black 384-well assay plate. […] DMSO concentration during initial incubation is 6.7%. […] DMSO concentration during ERK activation was 4%. After one hour, reactions are terminated by addition of 60 μl IMAP detections beads in binding buffer (Molecular Devices). Binding is allowed to equilibrate for 30 minutes before reading the plate on an LJL Analyst Fluorescence Polarization plate reader.
Activated ERK2 activity was also determined in the IMAP assay format using the procedure outlined above. […] Reactions proceeded for 30 minutes before termination by addition of […] IMAP detection beads in binding buffer. Plates were read as above after 30 minute binding equilibration.

Mouse ERK2 protein, sequence (P63085 whole entry): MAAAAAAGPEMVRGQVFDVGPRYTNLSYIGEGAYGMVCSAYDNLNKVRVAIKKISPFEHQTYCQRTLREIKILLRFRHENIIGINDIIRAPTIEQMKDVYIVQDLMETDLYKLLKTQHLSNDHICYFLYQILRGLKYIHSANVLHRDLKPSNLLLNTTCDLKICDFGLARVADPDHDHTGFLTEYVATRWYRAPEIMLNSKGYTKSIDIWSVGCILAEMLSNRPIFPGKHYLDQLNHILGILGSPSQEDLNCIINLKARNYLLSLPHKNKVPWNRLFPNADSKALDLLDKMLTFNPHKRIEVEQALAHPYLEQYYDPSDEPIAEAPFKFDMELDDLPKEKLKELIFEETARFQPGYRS

| IC50 | Compound |
| --- | --- |
| 101 to 1000 nM | O=C(N[C@@H]1CCN(Cc2csc3ccccc23)C1)N1CCc2[nH]nc(-c3ccc(-c4ccccc4)nc3)c2C1 [Compound 129, N-[1-(benzo[b]thien-3-ylmethyl)-3(R)-pyrrolidinyl]-1,4,6,7-tetrahydro-3-(6-phenyl-3-pyridinyl)-5H-pyrazolo[4,3-c]pyridine-5-carboxamide] |
| 21 to 100 nM | COc1cccc(F)c1CN1CC(C)CC(NC(=O)N2CCc3[nH]nc(-c4ccnc(C)c4)c3C2)C1 (stereo not shown) [Compound 90, N-[1-[(2-fluoro-6-methoxyphenyl)methyl]-5-methyl-3-piperidinyl]-1,4,6,7-tetrahydro-3-(2-methyl-4-pyridinyl)-5H-pyrazolo[4,3-c]pyridine-5-carboxamide] |
| 21 to 100 nM | Cc1cc(-c2n[nH]c3c2CN(C(=O)NC2CC(C)CN(Cc4csc5ccccc45)C2)CC3)ccn1 (stereo not shown) [Compound 101, N-[1-(benzo[b]thien-3-ylmethyl)-5-methyl-3-piperidinyl]-1,4,6,7-tetrahydro-3-(2-methyl-4-pyridinyl)-5H-pyrazolo[4,3-c]pyridine-5-carboxamide] |
| < 20 nM | CCn1cc(-c2n[nH]c3c2CN(C(=O)N[C@@H]2CN(C)C[C@H]2c2ccccc2C(F)(F)F)CC3)cn1 (racemic) [Compound 155, 3-(1-ethyl-1H-pyrazol-4-yl)-1,4,6,7-tetrahydro-N-[trans1-methyl-4-[2-(trifluoromethyl)phenyl]-3-pyrrolidinyl]-5H-pyrazolo[4,3-c]pyridine-5-carboxamide] |
| < 20 nM | CN1CC(NC(=O)N2CCc3[nH]nc(-c4ccncc4)c3C2)CC(c2ccccc2)C1 (stereo not shown) [Compound 49, 1,4,6,7-tetrahydro-N-(1-methyl-5-phenyl-3-piperidinyl)-3-(4-pyridinyl)-5H-pyrazolo[4,3-c]pyridine-5-carboxamide] |
| 101 to 1000 nM | Cc1cc(-c2n[nH]c3c2CN(C(=O)NC2(C)CCCN(Cc4c(F)cccc4F)C2)CC3)ccn1 (stereo not shown) [Compound 87, N-[1-[(2,6-difluorophenyl)-methyl]-3-methyl-3-piperidinyl]-1,4,6,7-tetrahydro-3-(2-methyl-4-pyridinyl)-5H-pyrazolo[4,3-c]pyridine-5-carboxamide] |
| < 20 nM | O=C(N[C@@H]1CCCN(Cc2c(F)cccc2Cl)C1)N1CCc2[nH]nc(-c3ccncc3)c2C1 [Compound 66, N-[1-[(2-chloro-6-fluorophenyl)methyl]-3(R)-piperidinyl]-1,4,6,7-tetrahydro-3-(4-pyridinyl)-5H-pyrazolo[4,3-c]pyridine-5-carboxamide] |
| 1000 to 100000 nM | CN(C)CCOc1ccccc1NC(=O)C1(C)CCc2[nH]nc(-c3ccncc3)c2C1 (stereo not shown) [Compound 19, N-[2-[2-(dimethylamino)-ethoxy]phenyl]-4,5,6,7-tetrahydro-5-methyl-3-(4-pyridinyl)-1H-indazole-5-carboxamide] |
| 101 to 1000 nM | O=C(Cc1ccccc1Oc1ccccc1)N1CCc2[nH]nc(-c3ccncc3)c2C1 [Compound 29, 4,5,6,7-tetrahydro-5-[(2-phenoxyphenyl)acetyl]-3-(4-pyridinyl)-1H-pyrazol[4,3-c]pyridine] |
| 101 to 1000 nM | O=C(N[C@@H]1CCCN(Cc2ccccc2N2CCOCC2)C1)N1CCc2[nH]nc(-c3ccncc3)c2C1 [Compound 74, 1,4,6,7-tetrahydro-N-[1-[[2-(4-morpholinyl)phenyl]-methyl]-3(R)-piperidinyl]-3-(4-pyridinyl)-5H-pyrazolo[4,3-c]pyridine-5-carboxamide] |
| 101 to 1000 nM | O=C(NC1CC2CC1N(Cc1c(F)cccc1F)C2)N1CCc2[nH]nc(-c3ccncc3)c2C1 (stereo not shown) [Compound 107, N-[2-[(2,6-difluorophenyl)-methyl]-2-azabicyclo[2.2.1]-hept-6-yl]-1,4,6,7-tetrahydro-3-(4-pyridinyl)-5H-pyrazolo[4,3-c]pyridine-5-carboxamide] |
| < 20 nM | COc1cccc(F)c1CN1CCC(F)C(NC(=O)N2CCc3[nH]nc(-c4ccc5nccn5c4)c3C2)C1 (stereo not shown) [Compound 150, N-[4-fluoro-1-[(2-fluoro-6-methoxyphenyl)methyl]-3-piperidinyl]-1,4,6,7-tetrahydro-3-imidazo[1,2-a]pyridin-6-yl-5H-pyrazolo[4,3-c]pyridine-5-carboxamide] |

Second part, the compound before the results:

| Compound | IC50 |
| --- | --- |
| COc1cccc(F)c1CN1CCC[C@@H](NC(=O)N2CCc3[nH]nc(-c4ccc(-c5ccccc5)nc4)c3C2)C1 [Compound 138, N-[1-[(2-fluoro-6-methoxyphenyl)methyl]-3(R)-piperidinyl]-1,4,6,7-tetrahydro-3-(6-phenyl-3-pyridinyl)-5H-pyrazolo[4,3-c]pyridine-5-carboxamide] | 101 to 1000 nM |
| Cc1nc2ccc(-c3n[nH]c4c3CN(C(=O)N[C@@H]3CCCN(Cc5ccccc5F)C3)CC4)cc2o1 [Compound 191, N-[1-[(2-fluorophenyl)-methyl]-3(R)-piperidinyl]-1,4,6,7-tetrahydro-3-(2-methyl-6-benzoxazolyl)-5H-pyrazolo[4,3-c]pyridine-5-carboxamide] | < 20 nM |
| O=C(Cc1c(F)cccc1Cl)N1CCc2[nH]nc(-c3ccncc3)c2C1 [Compound 27, 5-[(2-chloro-6-fluorophenyl)acetyl]-4,5,6,7-tetrahydro-3-(4-pyridinyl)-1H-pyrazolo[4,3-c]pyridine] | 101 to 1000 nM |
| CN(C)c1ccc(CC(=O)N2CCc3[nH]nc(-c4ccncc4)c3C2)cc1 [Compound 22, 5[[4-(dimethylamino)-phenyl]acetyl]-4,5,6,7-tetrahydro-3-(4-pyridinyl)-1H-pyrazolo[4,3-c]pyridine] | 101 to 1000 nM |
| Cc1nc2cc(-c3n[nH]c4c3CN(C(=O)N[C@@H]3CCCN(Cc5ccnc6ccccc56)C3)CC4)ccc2o1 [Compound 144, 1,4,6,7-tetrahydro-3-(2-methyl-5-benzoxazolyl)-N-[1-(4-quinolinylmethyl)-3(R)-piperidinyl]-5H-pyrazolo[4,3-c]pyridine-5-carboxamide] | 101 to 1000 nM |
| Cc1nc2cc(-c3n[nH]c4c3CN(C(=O)N[C@@H]3CCCN(Cc5c(F)cccc5F)C3)CC4)ccc2s1 [Compound 188, N-[1-[(2,6-difluorophenyl)methyl]-3(R)-piperidinyl]-1,4,6,7-tetrahydro-3-(2-methyl-5-benzothiazolyl)-5H-pyrazolo[4,3-c]pyridine-5-carboxamide] | 101 to 1000 nM |
| CC1(C(=O)Nc2ccccc2OCc2cccnc2)CCc2[nH]nc(-c3ccncc3)c2C1 (stereo not shown) [Compound 14, 4,5,6,7-tetrahydro-5-methyl-3-(4-pyridinyl)-N-[2-(3-pyridinylmethoxy)phenyl]-1H-indazole-5-carboxamide] | 1000 to 100000 nM |
| CC1(C(=O)N[C@H]2CNC[C@@H]2c2ccccc2)CCc2[nH]nc(-c3ccncc3)c2C1 (mixture of isomers) [Compound 4, 4,5,6,7-tetrahydro-5-methyl-N-(trans-4-phenyl-3-pyrrolidinyl)-3-(4-pyridinyl)-1H-indazole-5-carboxamide (mixture of isomers)] | 101 to 1000 nM |
| COC(=O)c1ccccc1CN1CCC[C@@H](NC(=O)N2CCc3[nH]nc(-c4ccncc4)c3C2)C1 [Compound 72, methyl 2-[[3(R)-[[[1,4,6,7-tetrahydro-3-(4-pyridinyl)-5H-pyrazolo[4,3-c]pyridin-5-yl]carbonyl]amino]-1-piperidinyl]methyl]benzoate] | 21 to 100 nM |

same assay, conditions: Table 2, 30 μM ATP

| IC50 | Compound |
| --- | --- |
| 1.9 nM | CCn1cc(-c2n[nH]c3c2CN(C(=O)NC2CN(C)CC2c2ccccc2C)CC3)cn1 (racemic) [Compound 147, 3-(1-ethyl-1H-pyrazoI-4-yl)-1,4,6,7-tetrahydro-N-ttrans-1-methyl-4-(2-methylphenyl)-3-pyrrolidinyl]-5H-pyrazolo[4,3-c]pyridine-5-carboxamide] |
